Measured values reported in article PMC3930709, “Selective Activation of hTRPV1 by N-Geranyl Cyclopropylcarboxamide, an Amiloride-Insensitive Salt Taste Enhancer” (PLoS ONE, 2014).

Key:
[1] = target: T1, αβγ hENaC (Homo sapiens, UniProt P37088+P51168+P51170); assay: Membrane potential assay (FMP dye) on αβγ hENaC-expressing cells; format: cell-based; settings: relative to buffer alone, 0.01-10 µM
T1 construct: GFP; host or cells: HEK293T
T1 sequence (P37088 1-669): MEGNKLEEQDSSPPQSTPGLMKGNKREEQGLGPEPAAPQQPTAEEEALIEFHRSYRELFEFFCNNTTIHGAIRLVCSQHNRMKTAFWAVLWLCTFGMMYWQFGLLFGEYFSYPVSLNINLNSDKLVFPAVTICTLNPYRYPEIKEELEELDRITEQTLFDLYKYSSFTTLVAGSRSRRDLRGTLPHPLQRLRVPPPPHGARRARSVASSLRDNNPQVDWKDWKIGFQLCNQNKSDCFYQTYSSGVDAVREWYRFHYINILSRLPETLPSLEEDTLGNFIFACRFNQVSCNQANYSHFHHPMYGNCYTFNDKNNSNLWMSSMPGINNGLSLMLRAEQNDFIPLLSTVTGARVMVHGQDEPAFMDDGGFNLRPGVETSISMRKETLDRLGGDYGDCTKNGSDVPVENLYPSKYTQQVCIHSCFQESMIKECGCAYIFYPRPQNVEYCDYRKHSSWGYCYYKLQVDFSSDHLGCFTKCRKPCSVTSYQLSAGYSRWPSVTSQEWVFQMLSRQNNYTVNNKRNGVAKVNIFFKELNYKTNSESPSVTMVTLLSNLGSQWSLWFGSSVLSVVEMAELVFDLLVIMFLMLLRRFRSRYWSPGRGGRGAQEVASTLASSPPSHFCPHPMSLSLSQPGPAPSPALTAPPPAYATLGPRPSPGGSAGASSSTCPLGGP
T1 sequence (P51168 1-640): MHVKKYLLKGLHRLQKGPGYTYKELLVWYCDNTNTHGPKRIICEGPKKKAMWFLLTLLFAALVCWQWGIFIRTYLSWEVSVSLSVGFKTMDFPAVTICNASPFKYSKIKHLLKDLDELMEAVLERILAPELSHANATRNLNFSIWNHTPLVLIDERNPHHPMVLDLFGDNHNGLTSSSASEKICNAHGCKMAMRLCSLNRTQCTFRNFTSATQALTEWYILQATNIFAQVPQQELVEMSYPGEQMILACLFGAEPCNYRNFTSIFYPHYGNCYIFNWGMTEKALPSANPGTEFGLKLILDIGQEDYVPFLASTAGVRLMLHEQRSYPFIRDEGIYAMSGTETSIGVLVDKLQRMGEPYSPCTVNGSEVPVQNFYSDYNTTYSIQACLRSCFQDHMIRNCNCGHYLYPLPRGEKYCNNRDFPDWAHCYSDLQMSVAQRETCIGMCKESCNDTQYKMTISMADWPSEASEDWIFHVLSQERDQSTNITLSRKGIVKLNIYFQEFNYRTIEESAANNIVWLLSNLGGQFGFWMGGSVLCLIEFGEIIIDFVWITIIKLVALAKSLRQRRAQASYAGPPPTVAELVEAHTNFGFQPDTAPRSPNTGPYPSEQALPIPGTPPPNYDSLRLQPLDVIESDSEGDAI
T1 sequence (P51170 1-649): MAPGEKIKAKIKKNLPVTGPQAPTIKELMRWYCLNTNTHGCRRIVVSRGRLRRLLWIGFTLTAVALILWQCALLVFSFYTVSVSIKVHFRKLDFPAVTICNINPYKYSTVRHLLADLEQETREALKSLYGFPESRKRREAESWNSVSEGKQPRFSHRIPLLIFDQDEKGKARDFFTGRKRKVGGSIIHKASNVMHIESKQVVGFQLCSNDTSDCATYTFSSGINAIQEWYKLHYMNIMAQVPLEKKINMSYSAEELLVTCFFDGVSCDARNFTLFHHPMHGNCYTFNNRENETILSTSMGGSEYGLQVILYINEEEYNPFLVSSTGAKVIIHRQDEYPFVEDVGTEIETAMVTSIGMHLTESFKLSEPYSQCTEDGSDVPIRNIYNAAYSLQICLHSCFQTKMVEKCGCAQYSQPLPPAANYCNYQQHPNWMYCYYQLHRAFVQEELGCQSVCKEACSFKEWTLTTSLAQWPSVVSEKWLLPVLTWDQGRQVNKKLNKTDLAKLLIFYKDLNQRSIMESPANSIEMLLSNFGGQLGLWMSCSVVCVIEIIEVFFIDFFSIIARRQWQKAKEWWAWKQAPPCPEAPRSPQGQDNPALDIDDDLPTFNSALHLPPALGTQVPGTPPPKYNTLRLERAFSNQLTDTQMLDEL
Method: The α, β, and γ hENaC subunits were cloned from OriGene (Rockville, MD; GenBank accession number […] for SCNN1A, NM_000336 for SCNN1B and NM_001039 for SCNN1G). α, GFP-tagged β, and γ hENaC were cloned into a CMV promoter-based vector and expressed constitutively. The HEK293T cells were seeded onto a 35 mm dish and transfected with α, β, and γ hENaC expression plasmid using Lipofectamine 2000 (Invitrogen). Then, transfected cells were seeded onto 96-well black-wall plate for 18–26 h prior to their use in an experiment.
hENaC-expressing cells were characterized using FLIPER Membrane Potential (FMP) Assay Kit (Molecular Devices Corporation, Sunnyvale, CA, USA). In this assay, changes in the membrane potential were quantified via fluorescence change caused by FMP dye. The hENaC-expressing cells were washed with assay buffer (containing: 130 mM NaCl, 10 mM glucose, 5 mM KCl, 2 mM CaCl2, 1.2 mM MgCl2, and 10 mM HEPES, pH adjusted to 7.4 with NaOH) and subsequently, FMP blue-dye in assay buffer was loaded into the cells at room temperature for 30 min. After dye treatment, S3969 (0.03−10 µM), an ENaC agonist, S3969+Bz (ENaC antagonist, 0.01 µM), or NGCC (0.01−10 µM) was treated to hENaC-expressing cells. The plate was assayed in a FlexStation III plate reader (Molecular devices Corporation) by excitation at 530 nm and measuring the emission at 560 nm.

[2] = test system: NaCl taste perception; design: method as in PMID 23221408; settings: NGCC 5 and 10 µM; cited from earlier work
[3] = test system: amiloride-insensitive salt taste pathway; design: method as in PMID 23221408; settings: WT and TRPV1 KO mice, electrophysiological studies; cited from earlier work

CC(C)=CCC/C(C)=C/CNC(=O)C1CC1 [NGCC, N-geranylcyclopropylcarboxamide]
change in membrane potential in αβγ hENaC-expressing cells [1]: no significant changes in membrane potential | effect on NaCl taste in human sensory studies [2]: significant enhancement in NaCl taste | effect on the amiloride-insensitive salt taste pathway [3]: produced biphasic effects
